Measured values published in ChEMBL document CHEMBL5370529, “Perspectives on the current antiviral developments towards RNA-dependent RNA polymerase (RdRp) and methyltransferase (MTase) domains of dengue virus non-structural protein 5 (DENV-NS5)” (Eur J Med Chem, 2023).
Values after ≈ are worked out from the molar mass of the structure shown. Each block holds one compound with its values, some of them ahead of it.

Key:
[1] = Inhibition of West Nile virus recombinant N-terminal NS5-methyltransferase
[2] = Cytotoxicity against hamster BHK-21 cells assessed as reduction in cell viability measured after 42 hrs by MTT assay; type: toxicity, cell-based, Mesocricetus auratus
[3] = Inhibition of DENV RNA-dependent RNA polymerase activity; parameters: species or system Dengue virus
A549 [4] = test: Cytotoxicity against human A549 cells assessed as reduction in cell viability measured after 48 hrs by Cell-titer glo luminescent assay; type: functional
[5] = Inhibition of Dengue virus RNA-dependent RNA polymerase in human Huh-7 cells; type: cell-based
PBMC = test: Cytotoxicity against human PBMC cells assessed as reduction in cell viability measured after 48 hrs by Cell-titer glo luminescent assay; type: functional
Huh-7 [6] = test: Cytotoxicity against human Huh-7 cells assessed as reduction in cell viability measured after 48 hrs by Cell-titer glo luminescent assay; type: functional
[7] = Cytotoxicity against hamster BHK-21 cells assessed as reduction in cell viability measured after 48 hrs by Cell-titer glo luminescent assay; type: toxicity, cell-based, Mesocricetus auratus
[8] = Cytotoxicity against African green monkey Vero cells assessed as reduction in cell viability measured after 72 hrs by MTT assay; type: toxicity, cell-based; details: chlorocebus sabaeus
dengue virus type 2 = test: Antiviral activity against Dengue virus 2 infected in African green monkey Vero cells assessed as suppression of viral replication; type: functional, organism-based
Nonstructural protein 5 [9] = biological target: T1, Nonstructural protein 5 (Dengue virus, UniProt V5TFZ2); test: Inhibition of DENV His-tagged recombinant NS5/RNA-dependent RNA polymerase
T1 sequence (V5TFZ2 whole entry): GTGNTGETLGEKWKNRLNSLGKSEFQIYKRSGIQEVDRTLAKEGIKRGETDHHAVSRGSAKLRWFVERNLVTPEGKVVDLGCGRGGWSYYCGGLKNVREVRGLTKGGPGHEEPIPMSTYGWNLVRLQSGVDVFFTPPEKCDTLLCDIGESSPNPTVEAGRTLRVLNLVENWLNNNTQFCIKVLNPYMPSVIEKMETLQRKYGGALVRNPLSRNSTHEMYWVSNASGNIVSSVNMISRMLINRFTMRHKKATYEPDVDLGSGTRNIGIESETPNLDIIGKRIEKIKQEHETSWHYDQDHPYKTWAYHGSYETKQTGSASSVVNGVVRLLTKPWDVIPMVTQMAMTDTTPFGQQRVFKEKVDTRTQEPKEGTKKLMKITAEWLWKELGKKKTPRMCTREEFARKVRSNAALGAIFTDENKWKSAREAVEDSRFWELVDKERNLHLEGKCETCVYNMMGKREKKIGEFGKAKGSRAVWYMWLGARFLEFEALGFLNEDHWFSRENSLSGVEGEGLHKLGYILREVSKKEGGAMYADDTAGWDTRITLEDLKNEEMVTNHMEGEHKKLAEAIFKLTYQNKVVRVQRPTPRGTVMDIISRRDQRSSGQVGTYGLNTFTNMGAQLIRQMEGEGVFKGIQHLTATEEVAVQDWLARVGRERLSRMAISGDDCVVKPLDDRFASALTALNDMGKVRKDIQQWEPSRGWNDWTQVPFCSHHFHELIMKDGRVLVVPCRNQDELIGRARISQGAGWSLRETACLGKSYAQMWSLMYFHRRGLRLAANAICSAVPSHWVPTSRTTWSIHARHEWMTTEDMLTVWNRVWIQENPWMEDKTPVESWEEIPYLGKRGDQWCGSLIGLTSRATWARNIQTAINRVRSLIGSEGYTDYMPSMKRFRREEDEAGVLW

[10] = Inhibition of DENV-2 NS5 polymerase incubated for 1 hr by fluorescence based analysis; parameters: species or system dengue virus type 2
[11] = Inhibition of DENV3 N-terminal 6-His-tagged RNA-dependent RNA polymerase expressed in Escherichia coli BL21; parameters: species or system dengue virus type 3
[12] = Cytotoxicity against African green monkey Vero E6 cells assessed as reduction in cell viability measured after 96 hrs by MTT assay; type: toxicity, cell-based; details: chlorocebus sabaeus, Vero E6 (Vero C1008) cells
[13] = Inhibition of DENV-3 RNA-dependent RNA polymerase expressed in Escherichia coli; parameters: species or system dengue virus type 3
[14] = Cytotoxicity against African green monkey Vero cells assessed as reduction in cell viability measured after 3 to 5 days by Cell titer-glo luminescent assay; type: toxicity, cell-based; details: chlorocebus sabaeus, time 3-5 day
[15] = Inhibition of DENV-4 full length NS5/RNA-dependent RNA polymerase; parameters: species or system dengue virus type 4
[16] = Cytotoxicity against hamster BHK-21 cells assessed as reduction in cell viability measured after 24 hrs by MTT assay; type: toxicity, cell-based, Mesocricetus auratus
[17] = Cytotoxicity against asian tiger mosquito C6/36 cells assessed as reduction in cell viability measured after 24 hrs by MTT assay; type: toxicity, cell-based; details: aedes albopictus
[18] = Inhibition of DENV-2 full length His-tagged RNA-dependent RNA polymerase expressed in Escherichia coli Rosetta cells BL21 (DE3) cells incubated for 2 hrs; parameters: species or system dengue virus type 2
[19] = Cytotoxicity against human HEK293T cells assessed as reduction in cell viability measured after 48 hrs by MTT assay; type: toxicity, cell-based, HEK-293T
[20] = Inhibition of DENV RNA N7 methyltransferase; parameters: species or system Dengue virus
A549 [21] = test: Cytotoxicity against human A549 cells assessed as reduction in cell viability measured after 48 hrs by MTT assay; type: functional
Huh-7 [22] = test: Cytotoxicity against human Huh-7 cells assessed as reduction in cell viability measured after 48 hrs by MTT assay; type: functional
[23] = Cytotoxicity against hamster BHK-21 cells assessed as cell growth inhibition measured after 48 hrs by MTT assay; type: toxicity, cell-based, Mesocricetus auratus
[24] = Cytotoxicity against monkey LLC-MK2 cells assessed as reduction in cell viability measured after 48 hrs by MTT assay; type: toxicity, cell-based, Macaca mulatta; details: rhesus monkey
Nonstructural protein 5 [25] = biological target: T1, Nonstructural protein 5; test: Inhibition of DENV/NS5 RNA-dependent RNA polymerase
[26] = Inhibition of DENV-4 full length NS5/RNA-dependent RNA polymerase in Huh-7 cells; type: cell-based, dengue virus type 4
Huh-7 [27] = test: Cytotoxicity against human Huh-7 cells assessed as reduction in cell viability measured after 48 hrs by Celltiter-glo assay; type: functional
Nonstructural protein 5 [28] = biological target: T1, Nonstructural protein 5; test: Inhibition of DENV C-terminal histidine-tagged NS5/RNA-dependent RNA polymerase
[29] = Inhibition of Dengue virus 3 nucleoside-2'O-methyltransferase; parameters: species or system dengue virus type 3
Huh-7 [30] = test: Cytotoxicity against human Huh-7 cells assessed as reduction in cell viability measured after 24 hrs by viral-Tox-glo assay; type: functional
Nonstructural protein 5 [31] = biological target: T1, Nonstructural protein 5; test: Inhibition of Dengue virus NS5/RNA-dependent RNA polymerase

IC50 [1]: 5.6 µM
Structure (SMILES): CC1=C(Nc2c(C)cc(O)cc2O)C(=O)C=c2oc3c(c21)C(C)=C(Nc1c(C)cc(O)cc1O)C(=O)C=3
CC50 at 42 h [2]: 117 µM

IC50 [3]: 100 nM
Structure (SMILES): C#C[C@@]1(O)[C@H](OC(=O)C(C)C)[C@@H](COC(=O)C(C)C)O[C@H]1n1cc(C(N)=O)c2c(N)ncnc21

IC50 (Nonstructural protein 5 [9]): 150 µM
Structure (SMILES): Nc1cc(C(F)(F)F)ccc1NC(=O)Nc1cccc(S(=O)(=O)Nc2ccc(C(=O)O)cc2)c1

IC50 (Nonstructural protein 5 [9]): 150 µM
Structure (SMILES): Nc1cc(C(F)(F)F)ccc1NC(=O)Nc1ccc(S(=O)(=O)Nc2ccc(C(=O)O)cc2)cc1

IC50 [10]: 1900 nM
Structure (SMILES): COc1cc(C)c(C(=O)NS(=O)(=O)c2cccc3cccnc23)cc1-c1ccc(C#CCO)s1

IC50 [11]: 1500 nM
Structure (SMILES): O=C(N[C@@H](Cc1ccc(O)cc1)C(=O)O)c1cc(-c2ccccc2)c(=O)n2c1sc1ccc(OC3CCCCC3)cc12
CC50 at 96 h [12]: > 100 µM

IC50 [13]: 287 µM | IC50 [15]: 445 µM
Structure (SMILES): CC(=O)Oc1ccc2oc(=O)sc2c1
CC50 [14]: 50 µM

IC50 [18]: 2300 nM
Structure (SMILES): O=C1[C@@H]2Cc3ccccc3N2[C@@H](c2ccc(O)c(O)c2)N1Nc1ccc([N+](=O)[O-])cc1

IC50 [18]: 2100 nM
Structure (SMILES): O=C1[C@@H]2Cc3ccccc3N2[C@@H](c2ccco2)N1Nc1ccccc1

IC50 (Nonstructural protein 5 [25]): 1700 nM
Structure (SMILES): O=c1c(O[C@@H]2O[C@@H](CO)[C@H](O)[C@H]2O)c(-c2ccc(O)c(O)c2)oc2cc(O)cc(O)c12 [AVICULARIN]

IC50 (Nonstructural protein 5 [28]): 260 nM
Structure (SMILES): O=c1cc(-c2ccc(Oc3c(O)cc4oc(-c5ccc(O)cc5)cc(=O)c4c3O)cc2)oc2cc(O)cc(O)c12 [HINOKIFLAVONE]

IC50 (Nonstructural protein 5 [28]): 330 nM
Structure (SMILES): O=c1cc(-c2ccc(O)c(-c3c(O)cc4oc(-c5ccc(O)cc5)cc(=O)c4c3O)c2)oc2cc(O)cc(O)c12 [ROBUSTAFLAVONE]

IC50 (Nonstructural protein 5 [25]): 2100 nM
Structure (SMILES): C[C@@H]1O[C@@H](OC[C@H]2O[C@@H](Oc3c(-c4ccc(O)c(O)c4)oc4cc(O)cc(O)c4c3=O)[C@H](O)[C@@H](O)[C@@H]2O)[C@H](O)[C@H](O)[C@H]1O [RUTIN]

IC50 (Nonstructural protein 5 [25]): 1900 nM
Structure (SMILES): O=c1c(O)c(-c2ccc(O[C@@H]3O[C@H](CO)[C@@H](O)[C@H](O)[C@H]3O)c(O)c2)oc2cc(O)cc(O)c12 [SPIRAEOSIDE]

The next lines start with the compound.

Structure (SMILES): C#C[C@@]1(O)[C@H](O)[C@@H](CO)O[C@H]1n1ccc2c(N)ncnc21
CC50 (A549 [4]): > 100 µM | IC50 [5]: 310 nM | CC50 (PBMC): > 100 µM | CC50 (Huh-7 [6]): > 100 µM | CC50 at 48 h [7]: > 100 µM

Structure (SMILES): CC(C)(O)[C@@H]1CC[C@](C)([C@H]2[C@@H](O)C[C@@]3(C)[C@@H]4C[C@H](O[C@@H]5O[C@H](CO)[C@@H](O)[C@H](O)[C@H]5O)[C@H]5C(C)(C)[C@@H](O[C@@H]6OC[C@@H](O)[C@H](O)[C@H]6O)CC[C@@]56C[C@@]46CC[C@]23C)O1
CC50 at 72 h [8]: > 1000 µg/mL | EC50 (dengue virus type 2): 1.56 µg/mL (≈ 1.99 µM)

Structure (SMILES): CC(=O)O[C@H]1[C@H](O[C@H]2CC[C@]34C[C@]35CC[C@]3(C)[C@@H]([C@@]6(C)CC[C@@H](C(C)(C)O)O6)[C@@H](O)C[C@@]3(C)[C@@H]5C[C@H](O[C@@H]3O[C@H](CO)[C@@H](O)[C@H](O)[C@H]3O)[C@H]4C2(C)C)OC[C@@H](O)[C@@H]1O
CC50 at 72 h [8]: > 1000 µg/mL | EC50 (dengue virus type 2): 1.56 µg/mL (≈ 1.89 µM)

Structure (SMILES): Cc1ccc(C2N(c3ccccc3)CC3=C(CC(C)(C)CC3=O)N2c2ccccc2)cc1 (stereo not given)
CC50 at 24 h [16]: 10 µM

Structure (SMILES): C=C1CC[C@@H]2[C@]3(C)COC(C)(C)O[C@@H]3CC[C@@]2(C)[C@@H]1C/C=C1/C(=O)OC[C@@H]1Oc1c(Cl)cc(Cl)c2ccc(C)nc12
CC50 at 24 h [17]: 15.6 µg/mL (≈ 26 µM)

Structure (SMILES): CCC(/C(C)=C/c1cc(OC)c(OC)cc1OC)c1cc(OC)c(OC)cc1OC (stereo not given)
CC50 at 48 h [19]: > 80 µM | IC50 [20]: 4.5 µM | CC50 (A549 [21]): > 80 µM | CC50 (Huh-7 [22]): > 80 µM | CC50 at 48 h [23]: > 80 µM

Structure (SMILES): CC(C)(O)[C@H]1CC[C@@](C)([C@H]2[C@@H](O)C[C@]3(C)[C@H]4C[C@@H](O)[C@H]5C(C)(C)[C@H](O[C@H]6OC[C@H](O)[C@@H](O)[C@@H]6O[C@H]6O[C@@H](CO)[C@H](O)[C@@H](O)[C@@H]6O)CC[C@]56C[C@]46CC[C@@]23C)O1
CC50 at 72 h [8]: > 1000 µg/mL | EC50 (dengue virus type 2): 1.56 µg/mL (≈ 1.99 µM)

Structure (SMILES): CC(=O)N[C@@H](C(=O)O)C(C)(C)SN=O
IC50 (Nonstructural protein 5 [9]): 150 µM | CC50 at 48 h [24]: 200 µM

Structure (SMILES): C=C1CC[C@@H]2[C@](C)(CO)[C@H](O)CC[C@@]2(C)[C@@H]1C/C=C1/C(=O)OC[C@H]1O [ANDROGRAPHOLIDE]
CC50 at 24 h [17]: 15.6 µg/mL (≈ 44.6 µM)

Structure (SMILES): CC1=C(/C=C/C(C)=C/C=C/C(C)=C/C(=O)Nc2ccc(O)cc2)C(C)(C)CCC1 [FENRETINIDE]
IC50 [26]: 5 µM | CC50 (Huh-7 [27]): ≤ 10 µM

Structure (SMILES): C[C@@H]1O[C@@H](Oc2c(-c3ccc(O)c(O)c3)oc3cc(O)cc(O)c3c2=O)[C@H](O)[C@H](O)[C@H]1O [QUERCITRIN]
IC50 (Nonstructural protein 5 [25]): 2100 nM

Structure (SMILES): NC(=O)c1ncn([C@@H]2O[C@H](COP(=O)(O)OP(=O)(O)OP(=O)(O)O)[C@@H](O)[C@H]2O)n1 [RTP]
IC50 [29]: 100 µM

Structure (SMILES): CC(C)OC(=O)[C@H](C)N[P@](=O)(OC[C@H]1O[C@@H](n2ccc(=O)[nH]c2=O)[C@](C)(F)[C@@H]1O)Oc1ccccc1 [SOFOSBUVIR]
CC50 (Huh-7 [30]): > 100 µM | IC50 (Nonstructural protein 5 [31]): 14.7 µM
